From US8906866B2, “Antibiotic compositions for the treatment of gram negative infections” (priority 2010, dated 2014)
*1 amine or outer side, *2 acyl side, *3 side chain or, on linkers, in order; H or OH if unused. Where a SMILES comes first, the peptide text is derived from it. Bridges are numbered along the chain shown (N, C = ends). [ ]: non-standard residue; d: D form. The star is where a group is joined. ξ: configuration not given here. Octanoyl(6-Me) = CCC(C)CCCCC(=O)*; Thr(3ξ) = CC(O)[C@H](N)C(=O)O; NH(2-ClPh) = Clc1ccccc1N*; X1 = CC[C@H](C)CCCCC(=O)*; dDab = NCC[C@@H](N)C(=O)O; Dab = NCC[C@H](N)C(=O)O; CO = O=C([*:1])[*:2]; ξDab = NCCC(N)C(=O)O

How the values were obtained:
[1] = system: E. coli 1527; experiment: MIC against the primary screening panel (broth microdilution); type: cell-based, Escherichia coli; design: key: A: a MIC value measurement that is the same as that observed for polymyxin B; a MIC value measured that is lower than the comparable value observed for polymxin B; a MIC value measured that is higher than the comparable value observed for polymyxin B; conditions: relative to polymyxin B
Protocol: (§1) Antibacterial potency can be assessed by broth microdilution according to CLSI guidelines, plates can be incubated at 37° C., and aeration (rotation at 200 rpm) can be employed. In some assays, surfactant (Survanta, Abbott Laboratories) can be added to give a final concentration of 1, 10 and 40% in caMHB. Native polymyxin A, polymyxin B and the comparator compound of Formula II (polymyxin B decapeptide with an o-chlorophenyl urea tail) were included for comparison.

[2] = system: K. pneumoniae 933; experiment: as above; type: cell-based, Klebsiella pneumoniae; design: key: A: a MIC value measurement that is the same as that observed for polymyxin B; a MIC value measured that is lower than the comparable value observed for polymxin B; a MIC value measured that is higher than the comparable value observed for polymyxin B; conditions: relative to polymyxin B
Protocol: as §1

[3] = system: P. aeruginosa 44; experiment: as above; type: cell-based, Pseudomonas aeruginosa; design: key: A: a MIC value measurement that is the same as that observed for polymyxin B; a MIC value measured that is lower than the comparable value observed for polymxin B; a MIC value measured that is higher than the comparable value observed for polymyxin B; conditions: relative to polymyxin B
Protocol: as §1

[4] = system: A. baumannii 1570; experiment: as above; type: cell-based, Acinetobacter baumannii; design: key: A: a MIC value measurement that is the same as that observed for polymyxin B; a MIC value measured that is lower than the comparable value observed for polymxin B; a MIC value measured that is higher than the comparable value observed for polymyxin B; conditions: relative to polymyxin B
Protocol: as §1

[5] = system: E. coli; experiment: MIC50/90 against small panels (n = 35); type: cell-based, Escherichia coli; design: key: A: a MIC value measurement that is the same as that observed for polymyxin B; a MIC value measured that is lower than the comparable value observed for polymxin B; a MIC value measured that is higher than the comparable value observed for polymyxin B; conditions: small panel n = 35, relative to polymyxin B
Protocol: as §1

[6] = system: K. pneumoniae; experiment: MIC50/90 against small panels (n = 35); type: cell-based, Klebsiella pneumoniae; design: key: A: a MIC value measurement that is the same as that observed for polymyxin B; a MIC value measured that is lower than the comparable value observed for polymxin B; a MIC value measured that is higher than the comparable value observed for polymyxin B; conditions: small panel n = 35, relative to polymyxin B
Protocol: as §1

[7] = system: P. aeruginosa; experiment: MIC50/90 against small panels (n = 35); type: cell-based, Pseudomonas aeruginosa; design: key: A: a MIC value measurement that is the same as that observed for polymyxin B; a MIC value measured that is lower than the comparable value observed for polymxin B; a MIC value measured that is higher than the comparable value observed for polymyxin B; conditions: small panel n = 35, relative to polymyxin B
Protocol: as §1

[8] = system: A. baumannii; experiment: MIC50/90 against small panels (n = 35); type: cell-based, Acinetobacter baumannii; design: key: A: a MIC value measurement that is the same as that observed for polymyxin B; a MIC value measured that is lower than the comparable value observed for polymxin B; a MIC value measured that is higher than the comparable value observed for polymyxin B; conditions: small panel n = 35, relative to polymyxin B
Protocol: as §1

[9] = system: P. aeruginosa #44; experiment: MICs for P. aeruginosa #44 in the presence of surfactant; type: cell-based, Pseudomonas aeruginosa; design: key: A: a MIC value measurement that is the same as that observed for polymyxin B; a MIC value measured that is lower than the comparable value observed for polymxin B; a MIC value measured that is higher than the comparable value observed for polymyxin B
Protocol: as §1

[10] = system: P. aeru; experiment: MIC50 and MIC90, CLSI broth microdilution, panel of Gram negative strains; type: cell-based, Pseudomonas aeruginosa; design: key: A: a measured MIC value equal to that of polymyxin B; a measured MIC value less than the corresponding MIC value measured for polymyxin B; a measured MIC value greater than the corresponding MIC value measured for polymyxin B; conditions: relative to polymyxin B, some strains multi-drug resistant
Protocol: (§2) MIC testing can be performed according to Clinical and Laboratory Standards Institute (CLSI) M7-A7 (2006) broth microdilution methods. Unless otherwise indicated, MIC values are provided in units of micrograms per milliliter.
(§3) One day prior to testing, individual colonies were isolated by streaking onto rich, non-selective Tryptic Soy agar with 5% lysed sheeps blood (TSAB) with incubation at 35-37° C. for 18-24 hours.
(§4) Cultures were prepared by touching 3-5 colonies into 3 mL of cation-adjusted Mueller Hinton Broth (caMHB) in a 14-mL tube (caMHB was prepared and sterilized according to manufacturer's specifications).
(§5) OD600 of growing cultures was measured and adjusted to approximately 10^5 colony forming units per mL (CFU/mL) in caMHB for MIC inoculation (approximately OD600 0.001).
(§6) Diluted cultures were used to inoculate 50 μL per well in broth microdilution assays (final volume 100 μl per well; compounds were prepared in two-fold dilutions).
(§7) Plates were incubated 16-20 hours at 37° C., with shaking at 200 rpm.
(§8) OD600 was determined for all wells. Growth was defined as OD600>0.1. MICs were defined as the lowest concentration producing no visible turbidity (OD600<0.1).

[11] = system: E. coli; experiment: as above; type: cell-based, Escherichia coli; design: key: A: a measured MIC value equal to that of polymyxin B; a measured MIC value less than the corresponding MIC value measured for polymyxin B; a measured MIC value greater than the corresponding MIC value measured for polymyxin B; conditions: relative to polymyxin B; some strains multi-drug resistant
Protocol: as §2, §3, §4, §5, §6, §7, §8

[12] = system: K. pneu; experiment: as above; type: cell-based, Klebsiella pneumoniae; design: key: A: a measured MIC value equal to that of polymyxin B; a measured MIC value less than the corresponding MIC value measured for polymyxin B; a measured MIC value greater than the corresponding MIC value measured for polymyxin B; conditions: relative to polymyxin B; some strains multi-drug resistant
Protocol: as §2, §3, §4, §5, §6, §7, §8

[13] = system: A. baum; experiment: as above; type: cell-based, Acinetobacter baumannii; design: key: A: a measured MIC value equal to that of polymyxin B; a measured MIC value less than the corresponding MIC value measured for polymyxin B; a measured MIC value greater than the corresponding MIC value measured for polymyxin B; conditions: relative to polymyxin B; some strains multi-drug resistant
Protocol: as §2, §3, §4, §5, §6, §7, §8

[14] = system: P. aeruginosa #44; experiment: MIC against P. aeruginosa #44 in polystyrene plate; type: cell-based, Pseudomonas aeruginosa; conditions: range of repeated tests
Protocol: P. aeruginosa #44 were grown in cation adjusted Mueller Hinton Broth (caMHB) (catalog#B12322; Fisher Scientific, Pittsburgh, Pa.) at 37° C. MIC testing was performed according to Clinical and Laboratory Standards Institute [CLSI, formerly National Committee for Clinical Laboratory Standards (NCCLS), Wayne, Pa.] guidelines for broth microdilution. […]

[15] = system: P. aeruginosa 44; experiment: Neutropenic mouse lung infection model; type: in vivo; conditions: for Lungs cleared within one log10 of limit of detection: 8 through 20 mg/kg dose levels
Protocol: Compound of Formula (Ia) was tested in a murine thigh model. For the thigh model, female CD-1 mice were rendered neutropenic by IP injection on days −4 and −1 with 150 and 100 mg/kg cyclophosphamide, respectively. On day 0 mice were infected with 1×10^7 colony-forming units (cfu) of A. baumannii 1570 in one thigh muscle, and then administered compound SC in a dose ranging from 2 to 12 mg/kg at 1 and 6 hours post-infection.
The mouse lung model was run in the same manner as the thigh infection model, except that mice were infected IN with 1×10^7 cfu of P. aeruginosa 44 on day 0. Doses administered in the lung study ranged from 8 to 20 mg/kg. The ED−3log10 was based on cfu determination from the lung tissue 24 hours post-infection.

[16] = Acute toxicity testing in rats; type: in vivo, Sprague-Dawley rat; conditions: 1 mg/kg i.v., female Sprague-Dawley rat
Protocol: One female Sprague-Dawley rat was administered a 1 mg/kg dose of the test Compound 5. Clinical observations were taken immediately following the administration of compound and at 0.5, 1, 2 and 4 hours post-dose.

[17] = neutropenic mouse lung, P. aeruginosa 44, SC, BID×1 d, cfu 24 hours post-infection

CCC(C)CCCCC(=O)N[C@@H](CCN)C(=O)N[C@H](C(=O)N[C@@H](CCN)C(=O)NC1CCNC(=O)[C@H](C(C)O)NC(=O)[C@H](CCN)NC(=O)C(CCN)NC(=O)[C@H](CC(C)C)NC(=O)[C@@H](Cc2ccccc2)NC(=O)[C@H](CCN)NC1=O)C(C)O (stereo partly shown) [Polymyxin B] ({Octanoyl(6-Me)}-[Dab][Thr(3ξ)][Dab][ξDab][Dab][dF]L[ξDab][Dab][Thr(3ξ)]; lactam 4-C)
MIC E. coli 1527 [1]: A | MIC K. pneumoniae 933 [2]: A | MIC P. aeruginosa 44 [3]: A | MIC A. baumannii 1570 [4]: A | E. coli MIC50 [5]: A | E. coli MIC90 [5]: A | K. pneumoniae MIC50 [6]: A | K. pneumoniae MIC90 [6]: A | P. aeruginosa MIC50 [7]: A | P. aeruginosa MIC90 [7]: A | A. baumannii MIC50 [8]: A | A. baumannii MIC90 [8]: A | MIC P. aeruginosa #44, 0% surfactant [9]: 0.06 micrograms/ml | MIC P. aeruginosa #44, 10% surfactant [9]: 8 micrograms/ml | MIC P. aeruginosa #44, 40% surfactant [9]: >32 micrograms/ml | P. aeru MIC 50 [10]: A | P. aeru MIC 90 [10]: A | E. coli MIC50 [11]: A | E. coli MIC90 [11]: A | K. pneu MIC 50 [12]: A | K. pneu MIC 90 [12]: A | A. baum MIC 50 [13]: A | A. baum MIC 90 [13]: A | MIC against P. aeruginosa #44 In polystyrene plate [14]: 1-2 micrograms/ml | Lungs cleared within one log10 of limit of detection [15]: not observed | ED−3log10 [15, 17]: > 20 mg/kg | ED−3log10 ([15]; neutropenic mouse lung, P. aeruginosa 44, SC, BID×1 d, cfu 24 hours post-infection, listed as PMB): 20.6 mg/kg

CC(C)C[C@@H]1NC(=O)[C@@H](Cc2ccccc2)NC(=O)[C@H](CCN)NC(=O)C(NC(=O)[C@H](CCN)NC(=O)[C@@H](NC(=O)[C@H](CCN)NC(=O)Nc2ccccc2Cl)C(C)O)CCNC(=O)[C@H](C(C)O)NC(=O)[C@H](CCN)NC(=O)C(CCN)NC1=O (stereo partly shown) [Formula (II) comparator] ({NH(2-ClPh)-CO}-[Dab][Thr(3ξ)][Dab][ξDab][Dab][dF]L[ξDab][Dab][Thr(3ξ)]; lactam 4-C)
MIC E. coli 1527 [1]: C | MIC K. pneumoniae 933 [2]: C | MIC P. aeruginosa 44 [3]: C | MIC A. baumannii 1570 [4]: C | E. coli MIC50 [5]: C | E. coli MIC90 [5]: C | K. pneumoniae MIC50 [6]: C | K. pneumoniae MIC90 [6]: C | P. aeruginosa MIC50 [7]: B | P. aeruginosa MIC90 [7]: A | A. baumannii MIC50 [8]: C | A. baumannii MIC90 [8]: C | MIC P. aeruginosa #44, 0% surfactant ([9]; relative to polymyxin B): C | MIC P. aeruginosa #44, 10% surfactant ([9]; relative to polymyxin B): B | MIC P. aeruginosa #44, 40% surfactant ([9]; relative to polymyxin B): A | P. aeru MIC 50 ([10]; listed as 2): B and A | P. aeru MIC 90 ([10]; listed as 2): A and C | E. coli MIC50 [11]: C | E. coli MIC90 [11]: C | K. pneu MIC 50 [12]: C | K. pneu MIC 90 [12]: C | A. baum MIC 50 [13]: C | A. baum MIC 90 [13]: C | Lungs cleared within one log10 of limit of detection [15]: not seen | ED−3log10 ([15]; historical data): approximately 12 mg/kg

Colistin
MIC against P. aeruginosa #44 In polystyrene plate [14]: 2-4 micrograms/ml

CC[C@H](C)CCCCC(=O)N[C@@H](CCN)C(=O)N[C@H](C(=O)N[C@H](CCN)C(=O)N[C@H]1CCNC(=O)[C@H]([C@@H](C)O)NC(=O)[C@H](CCN)NC(=O)[C@H](CCN)NC(=O)[C@H]([C@@H](C)O)NC(=O)[C@@H](CC(C)C)NC(=O)[C@H](CCN)NC1=O)[C@@H](C)O [Native Polymyxin A, Polymyxin A] (X1-[Dab]T[dDab][Dab][Dab][dL]T[Dab][Dab]T; lactam 4-C)
MIC E. coli 1527 [1]: B | MIC K. pneumoniae 933 [2]: A | MIC P. aeruginosa 44 [3]: C | MIC A. baumannii 1570 [4]: C | E. coli MIC50 [5]: B | E. coli MIC90 [5]: A | K. pneumoniae MIC50 [6]: C | K. pneumoniae MIC90 [6]: C | P. aeruginosa MIC50 [7]: A | P. aeruginosa MIC90 [7]: C | A. baumannii MIC50 [8]: A | A. baumannii MIC90 [8]: A | MIC P. aeruginosa #44, 0% surfactant ([9]; relative to polymyxin B): C | MIC P. aeruginosa #44, 10% surfactant ([9]; relative to polymyxin B): B | MIC P. aeruginosa #44, 40% surfactant ([9]; relative to polymyxin B): B | P. aeru MIC 50 [10]: A | P. aeru MIC 90 [10]: C | E. coli MIC50 [11]: B | E. coli MIC90 [11]: A | K. pneu MIC 50 [12]: C | K. pneu MIC 90 [12]: C | A. baum MIC 50 [13]: A | A. baum MIC 90 [13]: A | Lungs cleared within one log10 of limit of detection [15]: not observed | ED−3log10 [15, 17]: 16.22 mg/kg | Acute (anaphylactoid) observations [16]: no clinical signs were observed
